From ChEMBL document CHEMBL1142780, “Phenylpyrroles, a new chemolibrary virtual screening class of 5-HT7 receptor ligands” (Bioorg Med Chem Lett, 2005)

Columns and labels:
[1] = molecular target: 5-hydroxytryptamine receptor 7 (Rattus norvegicus) (UniProt P32305); test: Inhibition of the binding of [3H]LSD on rat 5-HT7R in HEK293 cells at concentration of 10e-6 M; format: cell-based
[2] = molecular target: 5-hydroxytryptamine receptor 7 (Rattus norvegicus) (UniProt P32305); test: Inhibition of the binding of [3H]LSD on rat 5-HT7R in HEK293 cells at concentration of 10e-8 M; format: cell-based
[3] = molecular target: 5-hydroxytryptamine receptor 7 (Rattus norvegicus) (UniProt P32305); test: Inhibition of the binding of [3H]LSD on rat 5-HT7R expressed in HEK293 cells at concentration of 10e-8 M; format: cell-based
[4] = molecular target: 5-hydroxytryptamine receptor 7 (Rattus norvegicus) (UniProt P32305); test: Inhibition of the binding of [3H]LSD on rat 5-HT7R expressed in HEK293 cells at concentration of 10e-6 M; format: cell-based
[5] = molecular target: T1, 5-hydroxytryptamine receptor 7 (Homo sapiens, UniProt P34969); test: Inhibition of the binding of [3H]LSD on human 5-HT7R expressed in sf9 cells at concentration of 10e-6 M
[6] = molecular target: T1, 5-hydroxytryptamine receptor 7; test: Inhibition of the binding of [3H]LSD on human 5-HT7R expressed in sf9 cells at concentration of 10e-8 M
[7] = molecular target: 5-hydroxytryptamine receptor 6 (Homo sapiens) (UniProt P50406); test: Inhibition of the binding of [3H]LSD (radioligand) on human 5-HT6 receptor at concentration of 10e-6 M
[8] = molecular target: 5-hydroxytryptamine receptor 7 (Rattus norvegicus, UniProt P32305); test: Binding affinity against rat 5-HT7R expressed in HEK293 cells; format: cell-based
[9] = molecular target: T2, 5-hydroxytryptamine receptor 1A (Rattus norvegicus, UniProt P19327); test: Binding affinity against rat 5-HT1A receptor
T2 sequence (P19327 whole entry): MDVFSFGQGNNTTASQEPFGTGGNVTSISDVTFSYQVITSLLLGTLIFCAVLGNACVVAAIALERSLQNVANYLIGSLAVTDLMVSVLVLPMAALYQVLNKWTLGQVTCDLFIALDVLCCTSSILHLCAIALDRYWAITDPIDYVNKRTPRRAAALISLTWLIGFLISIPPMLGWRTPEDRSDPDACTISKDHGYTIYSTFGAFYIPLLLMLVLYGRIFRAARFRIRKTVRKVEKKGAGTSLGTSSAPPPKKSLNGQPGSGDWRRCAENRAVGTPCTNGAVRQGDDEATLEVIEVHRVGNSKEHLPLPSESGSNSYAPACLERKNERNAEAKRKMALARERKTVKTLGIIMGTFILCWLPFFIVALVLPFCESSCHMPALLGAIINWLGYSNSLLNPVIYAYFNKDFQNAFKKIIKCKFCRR

[10] = molecular target: 5-hydroxytryptamine receptor 6 (Homo sapiens) (UniProt P50406); test: Inhibition of the binding of [3H]LSD (radioligand) on human 5-HT6 receptor at concentration of 10e-8 M
[11] = molecular target: T1, 5-hydroxytryptamine receptor 7; test: Binding affinity against Human 5-HT7R expressed in sf9 cells
[12] = molecular target: T1, 5-hydroxytryptamine receptor 7
Description: PKb value against Human 5-HT7 receptor

Chain of 5-hydroxytryptamine receptor 6 (Homo sapiens) (P50406 whole entry): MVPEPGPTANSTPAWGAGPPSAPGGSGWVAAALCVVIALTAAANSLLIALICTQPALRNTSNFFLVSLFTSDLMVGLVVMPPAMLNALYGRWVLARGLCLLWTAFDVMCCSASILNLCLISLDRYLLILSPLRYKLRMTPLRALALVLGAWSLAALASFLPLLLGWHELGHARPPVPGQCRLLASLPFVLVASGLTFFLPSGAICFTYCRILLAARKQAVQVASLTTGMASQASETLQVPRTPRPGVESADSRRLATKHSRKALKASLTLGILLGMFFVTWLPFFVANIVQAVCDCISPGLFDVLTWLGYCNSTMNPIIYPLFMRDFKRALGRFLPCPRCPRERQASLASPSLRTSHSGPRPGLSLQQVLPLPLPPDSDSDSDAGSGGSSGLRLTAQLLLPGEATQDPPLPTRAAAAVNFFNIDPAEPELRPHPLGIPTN
Chain of 5-hydroxytryptamine receptor 7 (Rattus norvegicus) (P32305 whole entry): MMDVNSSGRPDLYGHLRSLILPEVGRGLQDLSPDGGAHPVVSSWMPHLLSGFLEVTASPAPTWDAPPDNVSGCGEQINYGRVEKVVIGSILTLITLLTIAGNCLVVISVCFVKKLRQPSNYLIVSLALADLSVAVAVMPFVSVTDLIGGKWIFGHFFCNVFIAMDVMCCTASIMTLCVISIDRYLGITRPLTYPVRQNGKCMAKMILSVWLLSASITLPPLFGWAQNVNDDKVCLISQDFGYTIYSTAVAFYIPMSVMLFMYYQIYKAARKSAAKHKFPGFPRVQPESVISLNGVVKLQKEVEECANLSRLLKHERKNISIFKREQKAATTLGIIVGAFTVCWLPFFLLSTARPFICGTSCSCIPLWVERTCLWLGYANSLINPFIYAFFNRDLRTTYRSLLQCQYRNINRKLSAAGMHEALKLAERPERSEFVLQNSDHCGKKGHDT
Chain of 5-hydroxytryptamine receptor 7 (Rattus norvegicus, UniProt P32305) (P32305 whole entry): as above
T1 sequence (P34969 whole entry): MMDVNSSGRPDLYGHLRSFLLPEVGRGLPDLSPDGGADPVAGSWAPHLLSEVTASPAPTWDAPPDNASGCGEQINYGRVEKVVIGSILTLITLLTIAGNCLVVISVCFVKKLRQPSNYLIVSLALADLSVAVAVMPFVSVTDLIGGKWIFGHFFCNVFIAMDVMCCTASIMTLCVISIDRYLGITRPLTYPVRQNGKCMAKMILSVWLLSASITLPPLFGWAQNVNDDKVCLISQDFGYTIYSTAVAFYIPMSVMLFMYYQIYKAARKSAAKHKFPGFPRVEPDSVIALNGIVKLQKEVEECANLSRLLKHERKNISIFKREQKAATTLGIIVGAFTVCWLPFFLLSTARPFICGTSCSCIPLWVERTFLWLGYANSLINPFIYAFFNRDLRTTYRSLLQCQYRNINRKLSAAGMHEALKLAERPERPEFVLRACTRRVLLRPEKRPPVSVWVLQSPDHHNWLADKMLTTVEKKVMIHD

| Compound | inhibition [1] [%] | inhibition [2] [%] | inhibition [3] [%] | inhibition [4] [%] | inhibition [5] [%] | inhibition [6] [%] | other results |
| --- | --- | --- | --- | --- | --- | --- | --- |
| c1ccc(N2CCN(Cc3cccn3-c3ccccc3)CC2)cc1 |  |  |  |  | 71 | 14 |  |
| COc1ccccc1N1CCN(Cc2cccn2-c2ccccc2-c2ccccc2)CC1 |  |  | 0 | 26 |  |  |  |
| COc1ccc(OC)c(-n2cccc2CCN)c1 |  |  |  |  | 31 | 6 |  |
| N#Cc1ccccc1-n1cccc1CN1CCN(c2noc3ccccc23)CC1 |  |  | 1 | 43 |  |  |  |
| Cc1cccc(-n2cccc2CN2CCN(C)CC2)c1C |  |  | 0 | 33 |  |  |  |
| CCOc1ccc(OCC)c(-n2cccc2CCN)c1 |  |  |  |  | 14 | 0 |  |
| COc1ccccc1N1CCN(Cc2cccn2-c2ccc(Cl)cc2Cl)CC1 |  |  |  |  | 66 | 0 |  |
| Cc1ccccc1-n1cccc1CN1CCN(c2noc3ccccc23)CC1 |  |  | 0 | 47 |  |  |  |
| NCCc1cccn1-c1ccccc1Cl |  |  |  |  | 58 | 0 |  |
| N#Cc1ccccc1-n1ccc(CN2CCN(c3noc4ccccc34)CC2)c1 | 34 | 7 |  |  |  |  |  |
| COc1ccccc1N1CCN(Cc2cccn2-c2cccc(C)c2C)CC1 |  |  | 2 | 68 |  |  |  |
| NCCc1cccn1-c1ccccc1 |  |  |  |  | 31 | 0 |  |
| Cc1cccc(-n2cccc2CCN)c1C |  |  |  |  | 72 | 0 |  |
| COc1ccccc1-n1cccc1CN1CCN(C)CC1 |  |  | 0 | 12 |  |  |  |
| COc1ccc(-n2cccc2CCN)cc1 |  |  |  |  | 36 | 3 |  |
| COC(=O)c1cccc(C)c1-n1ccc(CN2CCN(c3ccccc3OC)CC2)c1 |  |  |  |  |  |  | inhibition [7]: 20%; PKb [12]: 7.66; Ki [9]: 18.5 nM; inhibition [10]: 9%; Ki [11]: 18 nM |

The next lines start with results.

| inhibition [1] [%] | inhibition [2] [%] | inhibition [3] [%] | inhibition [4] [%] | inhibition [5] [%] | inhibition [6] [%] | Compound | other results |
| --- | --- | --- | --- | --- | --- | --- | --- |
| 86 | 6 |  |  |  |  | COc1ccccc1N1CCN(Cc2ccn(-c3cccc4ccccc34)c2)CC1 |  |
|  |  | 16 | 80 |  |  | COc1ccccc1N1CCN(Cc2cccn2-c2ccccc2OC)CC1 |  |
| 32 | 0 |  |  |  |  | COc1ccccc1N1CCN(Cc2ccn(-c3c(C)cc(C)cc3C)c2)CC1 |  |
| 91 | 0 |  |  |  |  | COc1ccccc1N1CCN(Cc2ccn(-c3cccc(C)c3C)c2)CC1 |  |
|  |  | 17 | 60 |  |  | COc1ccccc1N1CCN(Cc2cccn2-c2cccc3ccccc23)CC1 |  |
| 6 | 0 |  |  |  |  | COc1ccccc1N1CCN(Cc2ccn(-c3ccccc3OC)c2)CC1 |  |
|  |  |  |  | 91 | 0 | COc1ccccc1N1CCN(Cc2cccn2-c2ccccc2)CC1 |  |
| 95 | 22 |  |  |  |  | COc1ccccc1N1CCN(Cc2ccn(-c3ccccc3C)c2)CC1 | inhibition [7]: 9%; Ki [8]: 21 nM; Ki [9]: 9.9 nM; inhibition [10]: 7%; Ki [11]: 4.7 nM |
| 42 | 9 |  |  |  |  | Cc1ccccc1-n1ccc(CN2CCN(c3noc4ccccc34)CC2)c1 |  |
|  |  | 0 | 24 |  |  | COc1ccccc1N1CCN(Cc2cccn2-c2ccccc2C#N)CC1 |  |
|  |  | 7 | 38 |  |  | COc1ccccc1N1CCN(Cc2cccn2-c2ccccc2C(F)(F)F)CC1 |  |
| 96 | 14 |  |  |  |  | COc1ccccc1N1CCN(Cc2ccn(-c3ccccc3C#N)c2)CC1 | inhibition [7]: 12%; Ki [8]: 19 nM; PKb [12]: 7.43; Ki [9]: 33.7 nM; inhibition [10]: 10%; Ki [11]: 5.4 nM |
| 91 | 21 |  |  |  |  | COc1ccccc1N1CCN(Cc2ccn(-c3ccccc3C(F)(F)F)c2)CC1 | Ki [8]: 105 nM |
|  |  | 0 | 63 |  |  | COc1ccccc1N1CCN(Cc2cccn2-c2ccccc2C)CC1 |  |
